For assay [1], the target named is T1, human Dipeptidyl-peptidase (DPP-IV) (Homo sapiens, UniProt P27487).
T1 construct: purchased Sigma Chemical Co. (St. Louis, MO, USA)
Briefly: Stability of synthesized peptides against DPP-IV (pre-incubation experiment, LC-MS and inhibition assay). Type of assay: biochemical. Particulars: peptide 500 µM; for DPP-IV inhibitory activity, after pre-incubation: after pre-incubation with DPP-IV 3 h at 37 °C. As for the experimental part:
The synthetic peptide was pre-incubated with DPP-IV to determine stability against DPP-IV. […] According to the previous method by Nongonierma et al. with slight modification, 50 μL of peptides (500 µM) dissolved in 1% DMSO were pre-incubated with 100 μL of DPP-IV (1 U/μL) in DPP-IV buffer at 37 °C for 3 h. Consequently, 75 µL of pre-incubation mixture was combined with 25 µL of 2 mM NaOH and 25 µL of 1.6 mM Gly-Pro-p-nitroanilide, and further pre-incubated at 37 °C for 10 min. The mixture was added with 25 µL of DPP-IV buffer and then incubated at 37 °C for 60 min. The reaction was ended using 100 µL of 1M sodium acetate at pH 4.0. The absorbance of each reaction was measured at 405 nm in a SpectraMax 190 Microplate Reader (Molecular Devices, LLC, San Jose, CA, USA) to determine DPP-IV inhibitory activity of peptide after a pre-incubation period. The remaining 75 µL of the original mixture was heat-inactivated at 95 °C for 10 min to end enzyme activity after which it was injected into LC-MS to confirm the stability of the peptide.

The target of assay [2] is T1, human Dipeptidyl-peptidase (DPP-IV). Description: DPP-IV inhibitory assay (Gly-Pro-p-nitroanilide substrate, absorbance 405 nm). To be noted: synthetic peptide; nonlinear regression, five concentrations. The class given is biochemical. From the text: Chinese soft-shelled turtle eggs were collected from Pingtung City, Taiwan. Pepsin (from porcine gastric mucosa), trypsin (from bovine pancreas), α-chymotrypsin (from bovine pancreas, thermolysin (from Geobacillus stearothermophilus), human Dipeptidyl-peptidase (DPP-IV), Gly-Pro-p-nitroaniline (GP_pNA), Iodoacetamide (IAM), and linagliptin were purchased from Sigma Chemical Co. (St. Louis, MO, USA). Formic acid (FA), acetonitrile (ACN), and ammonium bicarbonate (ABC) were acquired from J.T. Baker (Phillipsburg, NJ, USA). Sequencing grade modified trypsin was purchased from Promega (Madison, WI, USA). Trifluoroacetic acid (TFA) was acquired from Alfa Aesar (Lancashire, UK), and Wang resin was obtained from Cleo Salus (Louisville, KY, USA). Deionized water (ddH2O) was collected using the PURELAB® water purification system from ELGA LabWater (Lane End, High Wycombe, UK). All other chemicals used in this study were of reagent grades. HyperSep Retain PEP Polymeric material was purchased from Thermo Scientific Inc. Molecular weight cut-off (3 kDa MWCO) was procured from Millipore (Bedford, MA, USA).
The DPP-IV inhibitory assay was analyzed in triplicate according to the method of Lacroix and Li-Chan using 96-well microplates with slight modification. […] Linagliptin was used as a reference inhibitor in this experiment. All the reagents and samples were dissolved in 1% DMSO buffer. […] The blank and negative control contained 25 µL of 1% DMSO and 25 µL of DPP-IV buffer. The reaction was activated by 50 µL of DPP-IV (1 U/µL) while the blank sample used 50 µL of DPP-IV buffer instead. After 1 h at 37 °C, the mixture was terminated using 100 µL of 1M sodium acetate buffer at pH 4.0. A concentration of peptide that can inhibit fifty percentage of DPP-IV activity was defined as the IC50 value of DPP-IV inhibition peptide. The IC50 value was determined using different concentrations of inhibitor by nonlinear regression of Graphpad Prism 5.0 (GraphPad Software, Inc., La Jolla, CA, USA).

The test system of the next assay is DPP-IV. To be noted: cited from earlier work.

Like-named read-outs stand apart in the source and are kept apart here. Peptide text beside a SMILES is read from it.

T1 sequence (P27487 whole entry): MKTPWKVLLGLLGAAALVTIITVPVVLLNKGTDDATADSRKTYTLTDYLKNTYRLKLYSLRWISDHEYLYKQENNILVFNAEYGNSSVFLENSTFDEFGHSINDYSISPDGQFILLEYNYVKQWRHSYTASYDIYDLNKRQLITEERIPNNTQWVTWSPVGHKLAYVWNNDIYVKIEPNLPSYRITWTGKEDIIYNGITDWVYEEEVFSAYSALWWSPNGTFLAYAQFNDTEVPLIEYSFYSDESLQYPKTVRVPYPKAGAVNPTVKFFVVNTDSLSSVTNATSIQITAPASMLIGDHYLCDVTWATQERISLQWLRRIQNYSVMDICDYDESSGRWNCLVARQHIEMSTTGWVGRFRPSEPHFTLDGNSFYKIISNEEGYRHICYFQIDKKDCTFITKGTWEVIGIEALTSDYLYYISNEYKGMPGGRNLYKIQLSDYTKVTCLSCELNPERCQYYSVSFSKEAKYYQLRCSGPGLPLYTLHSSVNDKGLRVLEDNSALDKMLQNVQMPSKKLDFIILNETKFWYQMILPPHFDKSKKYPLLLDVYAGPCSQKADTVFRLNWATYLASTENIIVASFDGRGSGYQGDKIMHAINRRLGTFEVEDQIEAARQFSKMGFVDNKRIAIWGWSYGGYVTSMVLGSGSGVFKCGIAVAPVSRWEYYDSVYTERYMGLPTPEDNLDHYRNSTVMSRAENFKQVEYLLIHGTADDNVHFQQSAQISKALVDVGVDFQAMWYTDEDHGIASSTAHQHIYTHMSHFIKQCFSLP

In the case of `CC(C)C[C@H](NC(=O)[C@@H]1CCCN1C(=O)[C@@H](N)CC(C)C)C(=O)N[C@@H](Cc1ccccc1)C(=O)O` [LPLF] (H-LPLF-OH), in assay [1], the “DPP-IV inhibitory activity, after pre-incubation” value was 41.09% and the “DPP-IV inhibitory activity, without pre-incubation” value was 52.79%. For the same molecule, half-maximal inhibition in assay [2] (IC50) was put at 464 ± 5.52 µM.
For `CC(C)C[C@H](N)C(=O)N1CCC[C@H]1C(=O)N[C@@H](CO)C(=O)N[C@@H](Cc1c[nH]c2ccccc12)C(=O)O` [LPSW] (H-LPSW-OH), in assay [1], the “DPP-IV inhibitory activity, after pre-incubation” value was 55.22% and the “DPP-IV inhibitory activity, without pre-incubation” value is reported as 76.72%. In addition, it took 270 ± 15.9 µM to reach half-maximal inhibition in assay [2] (IC50).
`CC(C)C[C@H](NC(=O)[C@@H]1CCCN1C(=O)[C@H](CC(C)C)NC(=O)CNC(=O)[C@@H](NC(=O)[C@@H](N)CC(C)C)C(C)C)C(=O)O` [LVGLPL] (H-LVGLPL-OH): the IC50 (commonly the concentration that inhibits the measured activity by half) in assay [2] is above 2000 µM.
As for `CC(C)C[C@H](NC(=O)[C@H](C)NC(=O)[C@H](CC(C)C)NC(=O)CNC(=O)[C@@H]1CCCN1C(=O)[C@@H](N)C(C)C)C(=O)O` [VPGLAL] (H-VPGLAL-OH), in assay [1], the “DPP-IV inhibitory activity, after pre-incubation” value is 58.66% and the “DPP-IV inhibitory activity, without pre-incubation” value is listed as 66.14%. Further, the concentration for half-maximal inhibition (IC50) in assay [2] stood at 289 ± 11.9 µM.
As for `CC(C)C[C@H](NC(=O)[C@H](CCC(N)=O)NC(=O)[C@H](CC(C)C)NC(=O)[C@@H](N)Cc1c[nH]c2ccccc12)C(=O)O` [WLQL] (H-WLQL-OH), in assay [1], the “DPP-IV inhibitory activity, after pre-incubation” value amounted to 55.28% and the “DPP-IV inhibitory activity, without pre-incubation” value turned out to be 53.06%. In assay [2], this molecule gave a half-maximal inhibitory concentration (IC50) of 433 ± 40.3 µM.
In the case of GGPASGPAV, the IC50 with DPP-IV (peptides from salmon gelatin) is 8140 µM.
For ILNKEGINY, the IC50 in the assay with DPP-IV (peptides from camel milk) is 348 µM.
On to LPLPL, for which, in the assay with DPP-IV (peptides from milk), the IC50 was 325 µM.

The record behind these values is PMC7602288, “Characterization of Novel Dipeptidyl Peptidase-IV Inhibitory Peptides from Soft-Shelled Turtle Yolk Hydrolysate Using Orthogonal Bioassay-Guided Fractionations Coupled with In Vitro and In Silico Study” (Pharmaceuticals, 2020).
